From US7531195B2, “Schisandrin B preparation” (priority 2005, dated 2009)
Marks after values point to notes of the source that are not given here.

Experiments:
[1] = tested on: Isolated-Perfused Rat Heart; experiment: Myocardial ischemia-reperfusion injury (LDH leakage), isolated-perfused heart of old rats; assay type: in vivo; conditions: liposome-encapsulated, 10 mg/kg daily, 35 days
Protocol: Aged male and female rats (˜12 months old) were administered with liposome-encapsulated (−) Schisandrin B in drinking water for 35 days, with the daily dose estimated to be 10 mg/kg.
Male/Female adult Sprague-Dawley rats (˜12 months old) were maintained under a 12-h dark/light cycle at about 22° C. and allowed food and water ad libitum. Animals were randomly divided into groups, with at least 5 animals in each. In the pretreatment groups, rats were treated with liposome-encapsulated (−) Schisandrin B in drinking water for 35 days, with the estimated daily dose of 10 mg/kg. Control animals received empty liposomes-containing drinking water. Twenty-four hours following the last dosing, hearts were isolated from control or drug-pretreated rats and then subjected to Langendorff perfusion as described below.
The heart was excised quickly and immediately immersed in ice-cold and heparinized (50 unit/ml) saline. The aorta was cannulated and then transferred to a warm and moistured chamber of the perfusion apparatus. The heart was retrogradely perfused according to Langendorff method as described (Yim and Ko 1999).
After an initial 30-min of perfusion for equilibration, the isolated heart was subjected to a 40-min period of ‘no-flow’ global ischemia followed by 20 min of reperfusion. Coronary effluent was collected in 1-min fractions at increasing time intervals during the course of equilibration and reperfusion. The fractions were immediately put on ice until assay for lactate dehydrogenase (LDH) activity. The extent of LDH leakage during the reperfusion period, an indirect index of myocardial injury, was estimated by computing the area under the curve of the graph plotting the percent LDH activity (with respect to the mean pre-ischemic value measured during the equilibration period) against the reperfusion time (1-20 min), as described (Yim and Ko 1999). Immediately after the I-R procedure, heart ventricular tissue samples were obtained for biochemical analysis.

H9c2 cells = experiment: Menadione-induced toxicity (LDH) in H9c2 cells; assay type: cell-based, rat
Protocol: H9c2 cells, a permanent cell line derived from cardiac myoblasts of rat embryo, have early been characterized as a suitable model of myocardial cells [Hescheler et al. 1991]. H9c2 cells were cultured as monolayers in Dulbecco's modified Eagle's medium (GIBCO BRL) supplemented with 10% (v/v) fetal bovine serum. The medium contained glucose (4.5 g/L) and glutamine (4.5 mM), supplemented with NaHCO3 (17 mM), penicillin (100 IU/ml), and streptomycin (100 μg/ml). Cells were grown under an atmosphere of 5% CO2 in air at 37° C. The medium was replaced by fresh medium every 2 or 3 days. A stock of cells was grown in a 75 cm culture flask and split before confluence at a subcultivation ratio of 1:10. Cells used for experiments were seeded at a density of 3.75×10^4 cells/well on a 12-well culture plate, and the cells were grown for 24 h to about 80% confluence prior to drug treatment.
Cultured H9c2 cells were treated with (−) Schisandrin B, (+) Schisandrin B or (±) Schisandrin B (dissolved in DMSO) at 6.25 μM (0.2% DMSO final concentration) for 16 h. Control cells were given the vehicle (i.e. DMSO) only. Immediately following the drug or vehicle pretreatment, the cells were challenged with menadione (dissolved in ethanol) at 12.5 μM (0.2% ethanol final concentration) for 4 h. The control cells were treated with the medium containing 0.2% ethanol only. After the menadione challenge, the medium was taken for the measurement of LDH activity, an biochemical index of cell injury.

[2] = tested on: mitochondria of brain, heart, liver and skeletal muscle; experiment: Mitochondrial reactive oxidant species (ROS) generation in tissues of young adult and middle-aged rats; assay type: in vivo, rat
Protocol: Young adult (8-10 week-old) and middle-aged (12-14 month-old retired breeder) female Sprague-Dawley rats were maintained under a 12-h dark/light cycle at about 22° C. and allowed food and water ad libitum. Experimental protocols were approved by the Research Practice Committee at the Hong Kong University of Science & Technology, Hong Kong. Animals were randomly divided into groups, with 5 animals in each. In the treatment groups, rats were intragastrically administered with Sch B (dissolved/suspended in olive oil) at a daily dose of 10 mg/kg for 15 days. The daily dose is approximated to 1.14 mg/kg for humans after adjusting the inter-species difference in drug distribution in the body. Untreated control animals received olive oil only. Twenty-four hours after the last dosing, animals were sacrificed by decapitation and the whole brain, heart ventricular, liver and skeletal muscle (hind limb) tissues were excised and subjected to biochemical analysis. To investigate the effect of (−) Sch B on myocardial ischemia-reperfusion […] injury, rats were intragastrically administered with (−) Sch B at a daily dose of 10 mg/kg for 35 days. Untreated control animals received olive oil only. […]
Mitochondrial pellets were prepared from tissue homogenates by centrifugation at 800×g at 4° C. for 30 min, with purity being determined by measuring the relative specific activities of succinate dehydrogenase and lactate dehydrogenase (LDH) in the supernatant and mitochondrial pellet. […] The protein concentration of mitochondrial fractions was determined using a Bio-Rad protein assay kit.
An aliquot (50 μl) of mitochondrial fraction (50 μg protein/ml) and 60 μl of DCFDA solution (17.5 μM in incubation buffer) were added into wells of a black micro-titer plate. […] Fluorescence intensity (excitation: 485 nm and emission: 535 nm) of the reaction mixture was monitored every 5 min for 60 min. The mitochondrial ROS generation was reflected by the fluorescence intensity of the sample after subtracting the value of a blank sample containing incubation buffer, substrate solution and DCFDA. […]

[3] = MENADIONE 12.5 μM for 4 h, drug 6.25 μM for 16 h

## COc1cc2c(c(OC)c1OC)-c1c(cc3c(c1OC)OCO3)CC(C)C(C)C2 (single isomer, unassigned; (-)) [(−) Sch B, (−) Schisandrin B]
[1]; I-R, old female
  LDH Leakage: 4534 ± 86.5^b AU
  LDH Leakage, percent protection vs unpretreated control: (56%)
[1]; I-R, old male
  LDH Leakage: 2426 ± 219^a AU
  LDH Leakage, percent protection vs unpretreated control: (62%)
[1]; NON-I-R, old female
  LDH Leakage: 611 ± 49.7 AU
[1]; NON-I-R, old male
  LDH Leakage: 570 ± 66.8 AU
H9c2 cells; [3]
  LDH: 20.6 ± 0.18 U/ml
  LDH, percent protection vs menadione control: (60%)
H9c2 cells; NON-MENADIONE, 6.25 μM for 16 h
  LDH: 14.3 ± 0.29 U/ml
[2]; middle-aged rats, 10 mg/kg/day x 15, range among tissues
  decrease of mitochondrial ROS generation: 11-23%
[2]; middle-aged rats, liver
  difference in liver mitochondrial ROS generation between control and treated: not statistically significant
[2]; young adult rats, 10 mg/kg/day x 15, range among all tissues
  suppression of mitochondrial ROS generation: 16-38%
